From patent US8937065B2, “Compositions and methods for modulating a kinase” (Clevexel Pharma, priority 2011, dated 2015) come the findings set out here.

A short description of one data set: hLM T½ (stability). Format: in vitro ADME. The settings on record: human, liver microsomes. A general note: Microsomes from liver hold many membrane-bound enzymes, among them those of drug oxidation.
In data set [1] the test system is collagen induced arthritis (CIA) in DBA/1 mice. Description: Mouse collagen induced arthritis (CIA) slow-progressing disease model. It counts as in vivo. The conditions noted are these: 100 mg/kg IP QD, 20 days, mild CIA model, n=10, P<0.05. The method, then:
Compounds of the invention were evaluated in mouse collagen induced arthritis (CIA) models. There are several known CIA models as outlined in the table below:
The CIA studies utilized a mild (slow-progressing) disease model. The DBA/1 mice developed collagen induced arthritis (CIA) after immunization with Hooke Kit™ chicken collagen/Complete Freund's Adjuvant (CFA) emulsion (EK-0210), followed by a booster dose of Hooke Kit™ chicken collagen/Incomplete Freund's Adjuvant (IFA) emulsion (EK-0211). Each study used 54 female DBA/1 mice (Taconic Farms model DBA1BO, 9 weeks old) later assigned to […] with 10 mice per group. 4 mice were not immunized nor treated, and they were left as naïve controls group for possible histological analysis. The other 50 mice were treated therapeutically.
One study comprises group 1—Vehicle, group 2—CP-690550, 30 mg/kg PO QD, group 3—R-788, 60 mg/kg PO QD and group 4—compound 7, 100 mg/kg, IP QD. The other study comprises group 1—Vehicle, group 2—compound 7, 15 mg/kg PO QD, group 3—compound 7, 30 mg/kg PO QD and group 4—compound 7, 100 mg/kg, IP QD.
Mice were first immunized with collagen/CFA emulsion on Day 0 after being acclimated for at least 7 days. The procedure of immunization was as follows: A mouse was immobilized using a restrainer. The tail was cleaned with 70% ethanol and the area was wiped dry with sterile gauze. […]

In the data set “hLM T½ (stability)”, `O=C(CN1CCOCC1)Nc1cccc(-c2nc(-c3c[nH]c(C(=O)N4CCCC4)c3)cs2)c1` [7A, 2-morpholino-N-(3-(4-(5-(pyrrolidine-1-carbonyl)-1H-pyrrol-3-yl)thiazol-2-yl)phenyl)acetamide] displayed a half-life of 36 min. Further, in data set [1], the “CIA score on the last day vs. combined vehicle” value is listed as “reduction in CIA score”.

By half-life is commonly meant the time needed for the level to fall by half in the phase considered. Low values mean fast loss, high ones slow loss.
